Experimental data taken from patent US20240059661A1, “SOLID STATE FORMS OF 2-(3,5-DICHLOROPHENYL)-1,3-BENZOXAZOLE-6-CARBOXYLIC ACID OR ITS PHARMACEUTICALLY ACCEPTABLE SALTS AND POLYMORPHS THEREOF” (CIPLA LIMITED, priority 2021, published 2024).

Assays:
[1] = Forced degradation study (solid state stability) of Tafamidis Form C1; type: physicochemical
Description: Forced degradation is synonymous with stress testing and purposeful degradation. Purposeful degradation can be a useful tool to predict the stability of a drug substance or a drug product with effects on purity, potency, and safety. It is imperative to know the impurity profile and behavior of a drug substance under various stress conditions. Forced degradation also plays an important role in the development of analytical methods, setting specifications, and design of formulations under the quality-by-design (QbD) paradigm. The nature of the stress testing depends on the individual drug substance and the type of drug product (e.g., solid oral dosage, lyophilized powders, and liquid formulations) involved.
A forced degradation study was performed to generate potential degradation products and assess stability liabilities. Tafamidis form C1 prepared as per the present disclosure was subjected to forced degradation study with below specified conditions. […] The samples were analysed at pre-determined time intervals for PXRD, HPLC purity and water content. […] The forced degradation results for Tafamidis Form C1 are tabulated below in Table 1.

[2] = Indicative stability of Tafamidis Form C1 on storage up to 6 months; type: physicochemical
Protocol: The stability of Tafamidis form C1 prepared as per the present disclosure was studied by storing the samples at 2-8° C., 25° C./60% RH; and 40° C./75% RH storage conditions upto 6 months. The samples were analysed for PXRD, HPLC purity and water content at pre-determined time intervals of 1M, 2M, 3M and 6M.
The stability data collected after 6 months of storage are tabulated below in Table 2.

SMILES: O=C(O)c1ccc2nc(-c3cc(Cl)cc(Cl)c3)oc2c1 [Form C1, 2-(3,5-Dichlorophenyl)-1,3-benzoxazole-6-carboxylic acid]
- Description ([1]; 0 D, Initial): off-white powder
- HPLC Purity ([1]; 0 D, Initial): 99.98
- PXRD ([1]; 0 D, Initial): Form C1
- Water content KF ([1]; 0 D, Initial): 0.57%
- Description ([1]; 5 D, 60°C/80% RH): off-white powder
- HPLC Purity ([1]; 5 D, 60°C/80% RH): 99.97
- Water content KF ([1]; 5 D, 60°C/80% RH): 0.62%
- Description ([1]; 6 Hours (DHS), 105° C.): off-white powder
- HPLC Purity ([1]; 6 Hours (DHS), 105° C.): 99.98
- Description ([1]; 6 Hours, 120° C.): off-white powder
- HPLC Purity ([1]; 6 Hours, 120° C.): 99.99
- Description ([1]; 7 D, 25° C./60% RH Closed cup): off-white powder
- HPLC Purity ([1]; 7 D, 25° C./60% RH Closed cup): 99.98
- Water content KF ([1]; 7 D, 25° C./60% RH Closed cup): 0.42%
- Description ([1]; 7 D, 25° C./60% RH Open cup): off-white powder
- HPLC Purity ([1]; 7 D, 25° C./60% RH Open cup): 99.98
- Water content KF ([1]; 7 D, 25° C./60% RH Open cup): 0.48%
- Description ([1]; 7 D, 40° C./75% RH Closed cup): off-white powder
- HPLC Purity ([1]; 7 D, 40° C./75% RH Closed cup): 99.98
- Water content KF ([1]; 7 D, 40° C./75% RH Closed cup): 0.45%
- Description ([1]; 7 D, 40° C./75% RH Open cup): off-white powder
- HPLC Purity ([1]; 7 D, 40° C./75% RH Open cup): 99.98
- Water content KF ([1]; 7 D, 40° C./75% RH Open cup): 0.72%
- Description ([1]; 10 TORR): off-white powder
- HPLC Purity ([1]; 10 TORR): 99.99
- degradation under stress conditions ([1]; any of the stress conditions): did not show any degradation
- change with respect to PXRD, HPLC purity and water content ([1]; forced degradation, all conditions of Table 1): no significant change
- Description ([2]; 0, Initial): Off-white colour
- HPLC Purity ([2]; 0, Initial): 99.99
- PXRD ([2]; 0, Initial): Form C1
- Water content KF ([2]; 0, Initial): 0.34%
- Description ([2]; 1 month, 2-8° C.): Off-white colour
- HPLC Purity ([2]; 1 month, 2-8° C.): 99.98
- Water content KF ([2]; 1 month, 2-8° C.): 0.88%
- Description ([2]; 1 month, 25° C./60% RH): Off-white colour
- HPLC Purity ([2]; 1 month, 25° C./60% RH): 99.98
- Water content KF ([2]; 1 month, 25° C./60% RH): 0.85%
- Description ([2]; 1 month, 40° C./75% RH): Off-white colour
- HPLC Purity ([2]; 1 month, 40° C./75% RH): 99.99
- Water content KF ([2]; 1 month, 40° C./75% RH): 0.8%
- Description ([2]; 2 months, 2-8° C.): Off-white colour
- HPLC Purity ([2]; 2 months, 2-8° C.): 99.98
- Water content KF ([2]; 2 months, 2-8° C.): 0.63%
- Description ([2]; 2 months, 25° C./60% RH): Off-white colour
- HPLC Purity ([2]; 2 months, 25° C./60% RH): 99.98
- Water content KF ([2]; 2 months, 25° C./60% RH): 0.68%
- Description ([2]; 2 months, 40° C./75% RH): Off-white colour
- HPLC Purity ([2]; 2 months, 40° C./75% RH): 99.98
- Water content KF ([2]; 2 months, 40° C./75% RH): 0.78%
- Description ([2]; 3 months, 2-8° C.): Off-white colour
- HPLC Purity ([2]; 3 months, 2-8° C.): 99.98
- Water content KF ([2]; 3 months, 2-8° C.): 1.02%
- Description ([2]; 3 months, 25° C./60% RH): Off-white colour
- HPLC Purity ([2]; 3 months, 25° C./60% RH): 99.98
- Water content KF ([2]; 3 months, 25° C./60% RH): 0.92%
- Description ([2]; 3 months, 40° C./75% RH): Off-white colour
- HPLC Purity ([2]; 3 months, 40° C./75% RH): 99.98
- Water content KF ([2]; 3 months, 40° C./75% RH): 0.85%
- Description ([2]; 6 months, 2-8° C.): Off-white colour
- HPLC Purity ([2]; 6 months, 2-8° C.): 99.98
- Water content KF ([2]; 6 months, 2-8° C.): 0.79%
- Description ([2]; 6 months, 25° C./60% RH): Off-white colour
- HPLC Purity ([2]; 6 months, 25° C./60% RH): 99.98
- Water content KF ([2]; 6 months, 25° C./60% RH): 0.61%
- Description ([2]; 6 months, 40° C./75% RH): Off-white colour
- HPLC Purity ([2]; 6 months, 40° C./75% RH): 99.98
- Water content KF ([2]; 6 months, 40° C./75% RH): 0.65%
- change with respect to PXRD, HPLC purity and water content ([2]; all the storage conditions (2-8° C., 25° C./60% RH, 40° C./75% RH) up to 6 months): no significant change
